Test results published in patent publication US20100234313A1, “STABILIZED MICRONISED PARTICLES” (priority 2007, published 2010).

Assays:
[1] = Particle size distribution and mean particle size (d4,3) by laser diffraction (LS230); assay type: physicochemical; settings: for mean particle size (d4,3): non-ground product dispersed in water
Description: Measurements were carried out for the following organic compounds: natamycin (DSM Gist, Delft, the Netherlands), nystatin (DSM, Delft, the Netherlands), cocoa (Blooker Cocoa, Amsterdam, the Netherlands) and coffee (Douwe Egberts Coffee, Utrecht, the Netherlands). For natamycin two products each containing differently shaped natamycin particles were included in the example; a natamycin product comprising disc-shaped particles and a natamycin product comprising needle-shaped particles. Before use the coffee was filtered through a 150 μm sieve. Samples of the above organic compounds were dispersed in demineralised water until the light obscuration value, which was measured by Laser Diffraction technology using a Laser Diffraction Particle Size Analyzer LS230 from BeckmanCoulter, Fullerton, Calif., USA, was between 45% and 55%. […] Then, the particle size distribution was analysed with the device for 90 seconds. The device made use of a red laser and a tungsten lamp with wavelengths of 450, 600 and 900 nm to measure the particle size. The device required the refractive index of the liquid phase and the particles and the imaginary refractive index of the particles for determining the particle size distribution from the raw data. These values were manually entered into the measurement device (refractive index liquid: 1.33; refractive index natamycin: 1.6; nystatin: 1.6; cocoa: 2.0; coffee: 2.0; imaginary refractive index natamycin: 0.01; nystatin: 0.01; cocoa: 1.0; coffee: 1.0). From the particle size distribution the mean particle size was determined. The mean particle size provided by the measurement device was a volume based particle size, d4,3. The distribution per particle size range is given as a percentage of the total.
A buffer solution of pH 8 was made by mixing 13.75 ml citric acid solution of 0.1 mol/l with 486.25 ml sodium hydroxide solution of 0.2 mol/l. 25 g of disc-shaped natamycin (d4,3: 14.6 μm; DSM Gist, Delft, the Netherlands) was added to the buffer solution and the powder was dispersed by means of stirring. The grinding chamber (300 ml) of the ball mill (Dynomill KDL Special from Bachofen AG, Basel, Switzerland) was filled up to 75% (v/v) with 0.3 mm zirconium oxide beads stabilized with yttrium (Tosoh Corporation, Tokyo, Japan). The ball mill was operated at 2000 rotations per minute. The natamycin suspension was pumped through the ball mill at a flow rate of 6.1 g/s. The suspension that exited the ball mill was returned to the vessel containing the rest of the suspension. The suspension passed through the chamber of the ball mill multiple times during the grinding experiment. The residence time of the suspension in the grinding chamber and the vessel was 26.7 seconds and 59.4 seconds, respectively. Samples of the suspension exiting the mill were taken after 2, 5, 10, 20, 30, 45, 60, 75 and 90 minutes. The particle size in the suspension samples was measured for each sample by means of laser diffraction using the Laser Diffraction Particle Size Analyzer called LS230 from BeckmanCoulter (Fullerton, Calif., USA).
Disc-shaped natamycin powder was dispersed in water at a concentration of 3000 ppm. The mean particle size of the natamycin suspension was approximately 15 μm. The suspension was homogenized with a homogenizer (Panda 2K, ns100L, GEA NIRO SOAVI, Cell disrupter (R-type)) and a suspension comprising micronised natamycin particles was obtained. In Table 5 the mean particle size (d4,3) of the particles of the obtained suspension is shown as a function of homogenization pressure for a different number of homogenization cycles. […]
The experiment was essentially performed as for natamycin (see Example 2). […]

[2] = Sedimentation behaviour of suspensions (volume fraction below the sedimentation front); assay type: physicochemical
Description: In this experiment the stability of micronised and non-micronised natamycin suspensions was analyzed by observing the sedimentation behavior of the suspensions. A micronised natamycin suspension was prepared essentially as described in Example 2 with the proviso that the natamycin was suspended in demineralized water and the pH was not set. Next, a suspension with a final natamycin concentration of 1% (w/w) was prepared in an aqueous solution containing 0.01 M NaCl. The pH of samples of the suspension was set with 0.01 M NaOH and 0.01 M HCl. The samples of the suspension were stored and the pH was adjusted after 10 and 24 hours, if necessary. After 24 hours the pH of the samples of the suspension remained constant. Ten ml of each separate sample was placed in a plastic pipette (Ten ml sterile and disposable plastic pipette; inner diameter 7 mm; Bibby Sterilin Ltd. Stone, Staffordshire, United Kingdom) which was closed at both ends and stored vertically at 4° C. The sedimentation behavior of the samples was followed in time by measuring the volume above and below the sedimentation front within each pipette. In Table 7 the results are shown. The percentages indicate the volume fraction below the sedimentation front. […] This implies that the particles form sediment. The rate at which this occurs varies with pH. […]

[3] = Dissolution test, suspension diluted 70 times with water at room temperature; assay type: physicochemical; settings: stirred
Description: A micronised natamycin suspension prepared essentially as described in Example 7 (with size smaller than 0.2 μm) was diluted 70 times with water at room temperature. The suspension was stirred. Samples were taken out after 5 seconds and then every 10 seconds. The particles were removed from the suspension by filtration with a 0.02 μm syringe-filter (Whatman International Ltd, England). The natamycin concentration of the remaining solution was measured with a spectrophotometer (Uvikon 933, Kontron Instruments). […] The solution reached saturation within 5 seconds (approximately 43 ppm natamycin in solution and solid particles remaining). The same test was repeated with non-grinded disc-shaped natamycin particles with a mean particle size of around 15 μm. In this case the saturation concentration was reached after approximately 2 hours.

[4] = tested on: Penicillium discolor PED1, CR1A and Penicillium discolor PED74, L1; experiment: Challenge test on coated Gouda cheese; assay type: cell-based
Description: To test the efficacy of micronised natamycin in a cheese application, an experiment was performed wherein the surface of fresh brined Gouda cheeses were challenged with Penicillium discolor strains and treated with formulations comprising natamycin with different particle sizes. The amount of mould spores that was able to germinate on the treated cheese surfaces are an indication of the anti-fungal activity of the natamycin analyzed. The cheeses (10 per natamycin particle type) were considered to be no longer protected by natamycin, when at least 50% of the cheeses analyzed had more than two growing colonies.
Cheeses were coated with a coating containing base polymer Craymul 4386 (Cray Valley, Brummen) and containing natamycin particles. Cheeses were then contaminated at day zero with Penicillium discolor PED1, CR1A and Penicillium discolor PED74, L1 at a concentration of 1.1×10^3/cm^2. The cheeses were visually checked for fungal growth on a daily basis for three weeks. The experiment was carried out with three different natamycin particles: disc-shaped natamycin particles having a mean particle diameter of 15 μm; grinded disc-shaped natamycin particles for which grinding was stopped when the mean particle diameter was 1.23 μm; and micronised natamycin particles having a mean particle diameter of 0.18 μm. […] As a control, 10 cheeses comprising no natamycin in the coating were analyzed. […]

| SMILES | mean particle size (d4,3) [1] [μm] | Particle size distribution ([1]; particle size 0-0.2 μm) [% w/w] | Particle size distribution ([1]; particle size 0.2-0.8 μm) [% w/w] | Particle size distribution ([1]; particle size 0.8-2.0 μm) [% w/w] | Particle size distribution ([1]; particle size 2.0-5.0 μm) [% w/w] | Particle size distribution ([1]; particle size 5.0-10.0 μm) [% w/w] | Particle size distribution ([1]; particle size 10.0-50.0 μm) [% w/w] | Particle size distribution ([1]; particle size 50.0-200.0 μm) [% w/w] | volume percentage below the sedimentation front ([2]; pH 4 to 6, after one day) | mean particle size (d4,3) ([1]; listed as needle-shaped natamycin product) [μm] | mean particle size (d4,3) ([1]; listed as Disc-shaped natamycin powder) | mean particle size (d4,3) ([1]; listed as disc-shaped natamycin product) [μm] | sedimentation behaviour ([2]; all pH values (pH 3 to 10), within 24 hours) | time to reach saturation concentration [3] | Protection of cheese against fungal growth ([4]; 150 ppm natamycin in the coating) [days] | Protection of cheese against fungal growth ([4]; 250 ppm natamycin in the coating) [days] |
| --- | --- | --- | --- | --- | --- | --- | --- | --- | --- | --- | --- | --- | --- | --- | --- | --- |
| C[C@@H]1[C@H](O)[C@@H](C)/C=C/C=C/CC/C=C/C=C/C=C/C=C/C(O[C@H]2O[C@H](C)[C@@H](O)[C@H](N)[C@@H]2O)CC2O[C@](O)(CC(O)C(O)CCC(O)CC(O)CC(O)CC(=O)O[C@H]1C)CC(O)C2C(=O)O (stereo partly drawn) [Nystatin, nystatin] | 3.4 | 7.4 | 4.4 | 27.2 | 46.7 | 12.2 | 2.1 | 0.0 | around 25% | – | – | – | – | – | – | – |
| C[C@@H]1C/C=C/C=C/C=C/C=C/[C@H](O[C@@H]2O[C@H](C)[C@@H](O)[C@H](N)[C@@H]2O)C[C@@H]2O[C@](O)(C[C@@H](O)C[C@H]3O[C@@H]3/C=C/C(=O)O1)C[C@H](O)[C@H]2C(=O)O [Natamycin needle, natamycin] | – | 10.2 | 7.2 | 10.5 | 24.9 | 31.7 | 15.6 | 0.0 | – | 6.4 | – | – | – | – | – | – |
| C[C@@H]1C/C=C/C=C/C=C/C=C/[C@H](O[C@@H]2O[C@H](C)[C@@H](O)[C@H](N)[C@@H]2O)C[C@@H]2O[C@](O)(C[C@@H](O)C[C@H]3O[C@@H]3/C=C/C(=O)O1)C[C@H](O)[C@H]2C(=O)O [Natamycin disc, natamycin] | – | 0.0 | 0.0 | 0.8 | 18.4 | 32.6 | 47.8 | 0.4 | – | – | approximately 15 μm | 14.6 | completely sediment | approximately 2 hours | 16 | 18 |
